Measured values as given in article PMC11748689, “Pharmacological and structural understanding of the Trypanosoma cruzi proteasome provides key insights for developing site-specific inhibitors” (The Journal of Biological Chemistry, 2024).

What was measured:
[1] = target: recombinant β4^R mutant T. cruzi proteasome (trypsin-like activity) (Trypanosoma cruzi, UniProt V5BCU3); type: biochemical; details: for pIC50, Trypsin Assay, β4^R mutant: mean ± SD, N = 3
Protocol: Point mutations were created in individual subunits using overlapping PCR from the original templates using Polh and Tn7L primers outside the genes and suitable internal primers to introduce selected mutations. For Δβ1Δβ2, β1 Thr 55, and β2 Thr 67 were both mutated to Ala, the β4^R mutant was produced by mutating Phe 24 and Ile 29 to Leu and Met respectively in β4 subunit.
Chymotrypsin-, trypsin-, and caspase-like activity assays were performed using a commercially available Proteasome-Glo 3-substrate system assay kit (catalog number G8532) (Promega Corporation) according to the manufacturers protocols and as previously described ([24]).
Prior to running assays, Proteasome-Glo buffer was used to reconstitute the luciferin detection reagent (containing a recombinant thermostable luciferase enzyme). The resuspended luciferin detection reagent was then mixed with Proteasome-Glo chymotrypsin-, trypsin- or caspase-like substrates (either 40 μM suc-Leu-Leu-Val-Tyr-aminoluciferin, 30 μM Z-Leu-Arg-Arg-aminoluciferin (Z is benzyloxycarbonyl) or 40 μM Z-Nle-Pro-Nle-Asp-aminoluciferin respectively (these concentrations represent 2x final assay concentrations)). These substrate mixtures were allowed to incubate at room temperature for 60 min prior to use to allow the removal of any contaminating free aminoluciferin.
Proteasome assays were carried out using 384-well, white, low-volume plates (catalog number 784904) (Greiner Bio-One) at room temperature (∼23 °C) in 8 μl reaction volumes. When activity checks were to be run in the presence or absence of a fixed concentration of proteasome inhibitor, 80 nL of the inhibitor (at a concentration 100x the required final assay concentration), or 80 nL dimethylsulfoxide (DMSO), were dispensed into assay plates using an Echo 550 acoustic dispenser (Labcyte).
A 1 in 2 dilution series of the various T. cruzi proteasome samples (native, recombinant WT, β4^R mutant, and Δβ1Δβ2 mutant) were produced in assay buffer (50 mM Tris–HCl, pH 7.5, 10 mM sucrose, 5 mM MgCl2, 1 mM DTT, 2 mM ATP, 150 mM NaCl, 1 mM EDTA, and 0.05 mg/ml bovine serum albumin). Subsequently, 4 μl of the various concentrations of diluted proteasome were added to assay plates using an electronic multichannel pipette (Integra Biosciences Ltd). When kinetic read activity checks were performed (Fig. 2), proteasome final assay concentrations used were 115 μg/ml, 115 μg/ml, and 230 μg/ml native proteasome (in the chymotrypsin, trypsin, and caspase assays, respectively), and 4.1 μg/ml, 3.4 μg/ml, or 1.4 μg/ml recombinant WT proteasome (in the chymotrypsin, trypsin, and caspase assays, respectively). When activity checks were to be run in the presence or absence of a proteasome inhibitor plates containing inhibitor or DMSO control were incubated with the relevant proteasome sample for 60 min at room temperature (this step was not included in activity check experiments where compounds were not used).
Following the 60 min incubation of proteasome and compound (if required), assays were initiated with the addition of 4 μl of substrate mix (containing substrate and the luciferin detection reagent) using an electronic multichannel pipette. Final assay concentrations of substrates used were either 20 μM Suc-Leu-Leu-Val-Tyr-aminoluciferin, 15 μM Z-Leu-Arg-Arg-aminoluciferin, or 20 μM Z-Nle-Pro-Nle-Asp-aminoluciferin for chymotrypsin-, trypsin- or caspase-like activity respectively.
Luminescence was read either kinetically or as an endpoint read using an EnVision 2102 Multilabel Reader (PerkinElmer, Inc) with 0.2 s per well reading time. When kinetic assays were run, luminescence was read every 5 min for 90 min. Endpoint assays were run for 60 min before luminescence was read. All data processing and linear fit analyses were performed using Microsoft Excel for Microsoft 365 software (Redmond, Washington; https://www.microsoft.com/).

[2] = target: human proteasome (chymotrypsin activity) (Homo sapiens, UniProt P28074); assay: Human proteasome chymotrypsin activity assay; type: biochemical; details: dose response curve, n = 2 (Fig. S7)
Protocol: Human proteasome assays were carried out as described in ([42]).

SMILES | inhibition of trypsin activity, β4^R mutant, fixed concentration ([1]; 1 μM compound (Fig. S4)) | pIC50, Trypsin Assay, β4^R mutant [1] | inhibition of the human chymotrypsin activity [2]
O=C(Nc1ccc(F)c(-c2cn3nc(-c4ccccc4)cnc3n2)c1)N1CCCC1 [DDD01012248] | did not inhibit | <4.52 | –
O=C(Nc1ccc(F)c(C(=O)NC2CC2)c1)c1ccc(COc2ccccc2)o1 [DDD02091966, N-(3-(cyclopropylcarbamoyl)-4-fluorophenyl)-5-(phenoxymethyl)furan-2-carboxamide] | – | <4.52 | no inhibition
